Source: patent publication US20020137929A1, “1 - (3-heterocyclylphenyl) isothiourea, -isourea, -guanidine and -amidine herbicidal agents” (Intellectual Property Department, BASF Aktiengesellschaft, priority 1998, published 2002)

What was measured:
ABUTH (Velvetleaf) = assay: Postemergence herbicidal evaluation; assay type: in vivo, Abutilon theophrasti; settings: postemergence
Summary of the method: (§1)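 Seedlings grown about two weeks were sprayed at 40 psi with compound dispersed in 50/50 acetone/water plus 0.5% TWEEN 20, at about 0.0156 to 0.500 kg/ha. Plants were kept in the greenhouse and scored 4–5 weeks later on a 0–9 visual scale against untreated controls.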

AMBEL (Ragweed, Common) [1] = assay: Postemergence herbicidal evaluation; assay type: in vivo, Ambrosia artemisifolia; settings: postemergence
Summary of the method: as §1

[2] = test system: CHEAL (Lambsquarters, Common); assay: Postemergence herbicidal evaluation; assay type: in vivo, Chenopodium album; settings: postemergence
Summary of the method: as §1

ECHCG (Barnyardgrass) = assay: Postemergence herbicidal evaluation; assay type: in vivo, Echinochloa crus-galli; settings: postemergence
Summary of the method: as §1

[3] = test system: GLXMAW (Soybean, Williams); assay: Postemergence herbicidal evaluation; assay type: in vivo, Glycine max, (L.) Merr. cv Williams; settings: postemergence
Summary of the method: as §1

ORYSAT (Rice, Tebonnet) = assay: Postemergence herbicidal evaluation; assay type: in vivo, Oryza sativa, (L.) Tebonnet; settings: postemergence
Summary of the method: as §1

ZEAMX (Corn, Field) = assay: Postemergence herbicidal evaluation; assay type: in vivo, Zea mays; settings: postemergence
Summary of the method: as §1

AMBEL (Ragweed, Common) [4] = assay: Preemergence herbicidal evaluation; assay type: in vivo, Ambrosia artemisifolia; settings: rated 4-5 weeks after treatment
Summary of the method: (§2)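 In this greenhouse assay, monocot and dicot seeds are planted in soil and treated prior to emergence with an aqueous acetone spray (about 0.0156-0.500 kg/ha). Plants are assessed visually against control on a 0-9 scale after 4-5 weeks.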

CASOB (Sicklepod) = assay: Preemergence herbicidal evaluation; assay type: in vivo, Cassia obtusifolia; settings: rated 4-5 weeks after treatment
Summary of the method: as §2

[5] = test system: CHEAL (Lambsquarters, Common); assay: Preemergence herbicidal evaluation; assay type: in vivo, Chenopodium album; settings: rated 4-5 weeks after treatment
Summary of the method: as §2

GALAP (Galium) = assay: Preemergence herbicidal evaluation; assay type: in vivo, Galium aparine; settings: rated 4-5 weeks after treatment
Summary of the method: as §2

CYPSE (Flatsedge) [6] = assay: Preemergence weed control under flooded paddy conditions; assay type: in vivo, Cyperus serotinus; settings: rated 3-4 weeks after treatment
Summary of the method: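 First, seeds or propagules go into the top 0.5 cm of silt loam; next, water is held 1.5 to 3 cm over the soil; then compound (50/50 acetone/water) is pipetted into it at about 0.0313 to 0.500 kg/ha; finally plants are rated visually 0-9 after three to four weeks.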

CYPIR (Rice Flatsedge) = assay: Postemergence weed control under flooded paddy conditions; assay type: in vivo, Cyperus iria; settings: postemergence weeds, 3-4 weeks after treatment
Summary of the method: (§3)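 Containers holding 3–5 cm weeds and rice at 1.5–2.5 leaves are flooded to 1.5–3 cm above soil. Compound in 50/50 v/v aqueous/acetone is then added directly to the water, about 0.0313–0.500 kg/ha. Plants are kept in the greenhouse and rated 0–9 visually at 3–4 weeks.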

CYPSE (Flatsedge) [7] = assay: as above; assay type: in vivo, Cyperus serotinus; settings: postemergence weeds, 3-4 weeks after treatment
Summary of the method: as §3

## CC1SC(=Nc2cc(-n3c(=O)cc(C(F)(F)F)n(C)c3=O)c(F)cc2Cl)N(C)C1=O (stereo not drawn) [Compound 9]
ABUTH (Velvetleaf); rate 0.0156 kg/ha
  ABUTH herbicidal rating: 9.0
ABUTH (Velvetleaf); rate 0.0313 kg/ha
  ABUTH herbicidal rating: 9.0
ABUTH (Velvetleaf); rate 0.0625 kg/ha
  ABUTH herbicidal rating: 9.0
ABUTH (Velvetleaf); rate 0.1250 kg/ha
  ABUTH herbicidal rating: 9.0
AMBEL (Ragweed, Common) [1]; rate 0.0156 kg/ha
  AMBEL herbicidal rating: 2.0
AMBEL (Ragweed, Common) [1]; rate 0.0313 kg/ha
  AMBEL herbicidal rating: 3.5
AMBEL (Ragweed, Common) [1]; rate 0.0625 kg/ha
  AMBEL herbicidal rating: 7.5
AMBEL (Ragweed, Common) [1]; rate 0.1250 kg/ha
  AMBEL herbicidal rating: 7.0
[2]; rate 0.0156 kg/ha
  CHEAL herbicidal rating: 6.5
[2]; rate 0.0313 kg/ha
  CHEAL herbicidal rating: 6.0
[2]; rate 0.0625 kg/ha
  CHEAL herbicidal rating: 9.0
[2]; rate 0.1250 kg/ha
  CHEAL herbicidal rating: 9.0
ECHCG (Barnyardgrass); rate 0.0156 kg/ha
  ECHCG herbicidal rating: 0.0
ECHCG (Barnyardgrass); rate 0.0313 kg/ha
  ECHCG herbicidal rating: 0.0
ECHCG (Barnyardgrass); rate 0.0625 kg/ha
  ECHCG herbicidal rating: 2.0
ECHCG (Barnyardgrass); rate 0.1250 kg/ha
  ECHCG herbicidal rating: 4.5
[3]; rate 0.0156 kg/ha
  GLXMAW herbicidal rating: 4.5
[3]; rate 0.0313 kg/ha
  GLXMAW herbicidal rating: 5.8
[3]; rate 0.0625 kg/ha
  GLXMAW herbicidal rating: 6.8
[3]; rate 0.1250 kg/ha
  GLXMAW herbicidal rating: 7.3
ORYSAT (Rice, Tebonnet); rate 0.0156 kg/ha
  ORYSAT herbicidal rating: 2.0
ORYSAT (Rice, Tebonnet); rate 0.0313 kg/ha
  ORYSAT herbicidal rating: 2.3
ORYSAT (Rice, Tebonnet); rate 0.0625 kg/ha
  ORYSAT herbicidal rating: 3.0
ORYSAT (Rice, Tebonnet); rate 0.1250 kg/ha
  ORYSAT herbicidal rating: 3.5
ZEAMX (Corn, Field); rate 0.0156 kg/ha
  ZEAMX herbicidal rating: 4.8
ZEAMX (Corn, Field); rate 0.0313 kg/ha
  ZEAMX herbicidal rating: 5.0
ZEAMX (Corn, Field); rate 0.0625 kg/ha
  ZEAMX herbicidal rating: 5.5
ZEAMX (Corn, Field); rate 0.1250 kg/ha
  ZEAMX herbicidal rating: 7.0
AMBEL (Ragweed, Common) [4]; rate 0.0156 kg/ha
  AMBEL preemergence herbicidal rating: 3.0
AMBEL (Ragweed, Common) [4]; rate 0.0313 kg/ha
  AMBEL preemergence herbicidal rating: 6.3
AMBEL (Ragweed, Common) [4]; rate 0.0625 kg/ha
  AMBEL preemergence herbicidal rating: 7.3
AMBEL (Ragweed, Common) [4]; rate 0.1250 kg/ha
  AMBEL preemergence herbicidal rating: 9.0
AMBEL (Ragweed, Common) [4]; rate 0.2500 kg/ha
  AMBEL preemergence herbicidal rating: 9.0
CASOB (Sicklepod); rate 0.0156 kg/ha
  CASOB preemergence herbicidal rating: 1.0
CASOB (Sicklepod); rate 0.0313 kg/ha
  CASOB preemergence herbicidal rating: 1.0
CASOB (Sicklepod); rate 0.0625 kg/ha
  CASOB preemergence herbicidal rating: 3.0
CASOB (Sicklepod); rate 0.1250 kg/ha
  CASOB preemergence herbicidal rating: 5.3
CASOB (Sicklepod); rate 0.2500 kg/ha
  CASOB preemergence herbicidal rating: 8.0
[5]; rate 0.0156 kg/ha
  CHEAL preemergence herbicidal rating: 9.0
[5]; rate 0.0313 kg/ha
  CHEAL preemergence herbicidal rating: 9.0
[5]; rate 0.0625 kg/ha
  CHEAL preemergence herbicidal rating: 9.0
[5]; rate 0.1250 kg/ha
  CHEAL preemergence herbicidal rating: 9.0
[5]; rate 0.2500 kg/ha
  CHEAL preemergence herbicidal rating: 9.0
GALAP (Galium); rate 0.0156 kg/ha
  GALAP preemergence herbicidal rating: 1.0
GALAP (Galium); rate 0.0313 kg/ha
  GALAP preemergence herbicidal rating: 4.5
GALAP (Galium); rate 0.0625 kg/ha
  GALAP preemergence herbicidal rating: 9.0
GALAP (Galium); rate 0.1250 kg/ha
  GALAP preemergence herbicidal rating: 9.0
GALAP (Galium); rate 0.2500 kg/ha
  GALAP preemergence herbicidal rating: 9.0
CYPSE (Flatsedge) [6]; 0.0313 kg/ha
  Herbicidal rating CYPSE: 0.0
CYPSE (Flatsedge) [6]; 0.0625 kg/ha
  Herbicidal rating CYPSE: 0.0
CYPSE (Flatsedge) [6]; 0.1250 kg/ha
  Herbicidal rating CYPSE: 2.0
CYPSE (Flatsedge) [6]; 0.2500 kg/ha
  Herbicidal rating CYPSE: 7.0
CYPIR (Rice Flatsedge); rate 0.0313 kg/ha
  Herbicidal rating CYPIR: 0.0
CYPIR (Rice Flatsedge); rate 0.0625 kg/ha
  Herbicidal rating CYPIR: 2.0
CYPIR (Rice Flatsedge); rate 0.1250 kg/ha
  Herbicidal rating CYPIR: 4.0
CYPIR (Rice Flatsedge); rate 0.2500 kg/ha
  Herbicidal rating CYPIR: 6.0
CYPSE (Flatsedge) [7]; rate 0.0313 kg/ha
  Herbicidal rating CYPSE: 0.0
CYPSE (Flatsedge) [7]; rate 0.0625 kg/ha
  Herbicidal rating CYPSE: 0.0
CYPSE (Flatsedge) [7]; rate 0.1250 kg/ha
  Herbicidal rating CYPSE: 2.0
CYPSE (Flatsedge) [7]; rate 0.2500 kg/ha
  Herbicidal rating CYPSE: 7.0
